{"source": "patent US9694072B2", "about": "“Methods for diagnosing and treating neuroendocrine cancer” (Trustees of Dartmouth College, priority 2005, dated 2017)", "key": {"[1]": {"test_system": "Ovarian A2780 and A2008 cancer cells", "test": "Ovarian cancer cell growth (Alamar Blue)", "format": "cell-based, human", "procedure": "Ovarian A2780 and A2008 cancer cells were plated in 96 well plates at 1-2×10^4 cells/well. […] Alamar Blue was later added to each well following an incubation period, and fluorescent readings taken at excitation 530-560 nm and emission of 590 nm and above on a SYNERGY HT Multi Detection Reader. […] Significance was p<0.001 for 400 to 900 μM of MK-801. […] These findings indicate both NMDAR antagonists and anti-NMDA receptor monoclonal antibodies would be of use as effective inhibitors of ovarian tumor xenografts in mice."}, "[2]": {"test_system": "SKBr3 breast cancer cells", "test": "Alamar Blue growth/proliferation study", "format": "cell-based, human"}, "[3]": {"test_system": "NCI-H146 cells", "test": "Cell growth/viability assay (Alamar Blue)", "format": "cell-based, human", "conditions": "Homo sapiens, NCI-H146, 48 h, read-out: IC50, cell viability", "protocol": "(§1) Cultures of NCI-H345, NCI-H146, DMS-53 cells (classical cell lines), and NCI-H82 cells (variant cell line) were treated with 0.05% trypsin, washed in phosphate buffered saline (PBS)/glycine and plated onto 96-well plates at 10^4 cells/well in medium for 24 hours to provide time for rectifying possible damage to membrane proteins from the trypsinization. […] Fluorescent readings were taken at periods representing 24, 48, and 72 hours of incubation with antagonist using a Synergy HT Multi-Detection Microplate Reader and excitation/emission wavelengths of 530 nm and 590 nm. Cell viability was evaluated as % vehicle control at the corresponding incubation time."}, "[4]": {"test_system": "NCI-H82 variant SCLC cells", "test": "Cell growth/viability assay (Alamar Blue)", "format": "cell-based, human", "conditions": "for IC50: Homo sapiens", "protocol": "as §1"}, "[5]": {"test_system": "Human tumor xenografts of breast cancer cells", "test": "Breast cancer xenografts treated with anti-NMDAR1 antibodies", "design": "species or system nu/nu mice", "conditions": "mouse", "procedure": "Human tumor xenografts of breast cancer cells were raised in nu/nu mice, and the influence of anti-NMDAR1 polyclonal antibodies then examined on tumor growth. For antibody studies, growth in a control group (n=4) was compared to tumor growth in animals (n=4) receiving 50 ng of Protein A-isolated, antibody-containing, IgG once each day for 15 days. Tumor was then measured for an […]. While control tumors grew to >20 times their original size, tumors treated with anti-NMDAR1 antibodies shrank to <50% original size and remained at this shrunken size for the duration of treatment (p<<0.0001)(FIG. 7). Tumor size then began very slowly to rise but even 20 days later they were only back to original size (100%). Values are expressed as a percentage of tumor size at day 0 (+/−SEM)."}, "[6]": {"test_system": "DMS-53 cells", "test": "Cell growth/viability assay (Alamar Blue)", "format": "cell-based, human", "conditions": "Homo sapiens, DMS-53, 48 h, read-out: IC50, cell viability", "protocol": "as §1"}, "[7]": {"test_system": "SKBr3 breast cancer cells", "test": "Alamar Blue growth/proliferation study", "format": "cell-based, human", "conditions": "SKBr3, NMDAR1 antagonist treatment", "procedure": "Results represent triplicate studies performed with Alamar Blue on LAN2 neuroblastoma, MCF-7 breast cancer, and SKBr3 breast cancer cells examining the growth influence of 1 mM glutamate in the presence of glycine over 24 hours.\nResults represent triplicate studies performed with Alamar Blue on LAN2 neuroblastoma, MCF-7 breast cancer, and SKBr3 breast cancer cells examining the growth influence of 100 mM Mg^++ in the presence of glycine over 24 hours."}, "[8]": {"test_system": "MCF-7 breast cancer cells", "test": "Alamar Blue growth/proliferation study", "format": "cell-based, human", "conditions": "MCF-7, NMDAR1 antagonist treatment"}, "[9]": {"test_system": "SCLC NCI-H345 tumor xenografts", "test": "Treatment of SCLC tumor xenografts in mice", "format": "in vivo, nu/nu mice", "from_the_text": "Human tumor xenografts of small cell lung cancer (SCLC) cell line NCI-H345 were raised in nu/nu mice, and the influence of the NMDAR1 receptor antagonist dizocilpine maleate (MK-801) then examined on established tumor growth measured by multiplying depth, width, and length determined using a micrometer. Tumor growth in a control group of animals receiving i.p. PBS vehicle (n=4) was compared to tumor growth in animals (n=4) receiving dizocilpine maleate (MK-801) over 10 days. Animals received an escalating single dose of this NMDAR1 antagonist from 0.1 mg/Kg body weight each day for days 0-2, then to a single dose of 0.2 mg/Kg body weight each day for days 3-6, then to a single dose of 0.3 mg/Kg body weight each day for days 7-8. Finally two daily doses of 0.3 mg/Kg body weight were given for days 8-10.\nResults were analyzed by Analysis of Variance and the Student-Neuman-Kuels test. Longitudinal growth data was evaluated using repeated measures ANOVA. Significant was determined to be present for p<0.05."}, "[10]": {"test_system": "LNCAP prostate cancer cells", "test": "Prostate cancer cell viability (Alamar Blue)", "format": "cell-based, human", "procedure": "To determine the effects of NMDAR1 antibodies on prostate cell viability, LNCAP prostate cancer cells were plated in 96 well plates at 1-2×10^4 cells/well. […] Alamar Blue was later added to each well following an incubation period, and fluorescent readings taken at excitation 530-560 nm and emission 590 nm and above on a SYNERGY HT Multi Detection Reader."}, "[11]": {"test_system": "NCI-H345 classical SCLC cells", "test": "Cell growth/viability assay (Alamar Blue)", "conditions": "for IC50: Homo sapiens", "procedure": "Cultures of NCI-H345, NCI-H146, DMS-53 cells (classical cell lines), and NCI-H82 cells (variant cell line) were treated with 0.05% trypsin, washed in phosphate buffered saline (PBS)/glycine and plated onto 96-well plates at 10^4 cells/well in medium for 24 hours to provide time for rectifying possible damage to membrane proteins from the trypsinization. The wells were washed and incubated with PBS/glycine containing albumin (1.25 mg/mL) in the presence or absence of different concentrations (25 μM-800 μM) of either the NMDAR 1 antagonists, Memantine or MK-801; or the NMDAR2B antagonists Ifenprodil and Ro 25-6981 (binders to the polyamine site), or the NMDAR2B antagonists L-701,252 and L-701,324 (binders to the glycine site), or vehicle; and Alamar Blue (1:10 dilution following manufacturer's recommendation). Fluorescent readings were taken at periods representing 24, 48, and 72 hours of incubation with antagonist using a Synergy HT Multi-Detection Microplate Reader and excitation/emission wavelengths of 530 nm and 590 nm. Cell viability was evaluated as % vehicle control at the corresponding incubation time.\nThis peptide domain is represented in that portion of the mRNA message sequenced by RT-PCR. For studies on cell proliferation, the IgGs of this antiserum were first isolated by precipitation with 50% saturated ammonium sulfate, and antibodies purified from these immunoglobulins by affinity chromatography using a column containing the peptide component of the above antigen coupled to SEPHAROSE (Friedmann, et al. (1994) supra; Keegan, et al. (2002) supra)."}}, "note": "Structures can show the parent of a compound that is named as a salt. Where two headings read alike, the source gives them in different places.", "data": [{"smiles": "C[C@]12N[C@H](Cc3ccccc31)c1ccccc12", "note": "[MK-801, dizocilpine maleate]", "values": [{"measurement": "reduction in fluorescent units", "setting": "[1]; at 500, 600, 700, 800, and 900 μM compared to 100, 200 and 400 μM", "result": "more than 50%"}, {"measurement": "effect on cell growth (in words)", "setting": "[1]; ovarian cancer cells, Alamar Blue", "result": "dramatic reductions in cell growth"}, {"measurement": "Proliferation of SKBr3 Cells Percent Fluorescence Compared to Control", "setting": "[2]; 100 μM, 24 Hours", "result": "92.29 ± 6.82", "unit": "%"}, {"measurement": "Proliferation of SKBr3 Cells Percent Fluorescence Compared to Control", "setting": "[2]; 100 μM, 48 Hours", "result": "91.74 ± 2.94", "unit": "%"}, {"measurement": "Proliferation of SKBr3 Cells Percent Fluorescence Compared to Control", "setting": "[2]; 100 μM, 72 Hours", "result": "95.06 ± 1.22", "unit": "%"}, {"measurement": "Proliferation of SKBr3 Cells Percent Fluorescence Compared to Control", "setting": "[2]; 200 μM, 24 Hours", "result": "89.47 ± 5.77", "unit": "%"}, {"measurement": "Proliferation of SKBr3 Cells Percent Fluorescence Compared to Control", "setting": "[2]; 200 μM, 48 Hours", "result": "89.35 ± 2.83", "unit": "%"}, {"measurement": "Proliferation of SKBr3 Cells Percent Fluorescence Compared to Control", "setting": "[2]; 200 μM, 72 Hours", "result": "93.24 ± 1.68", "unit": "%"}, {"measurement": "Proliferation of SKBr3 Cells Percent Fluorescence Compared to Control", "setting": "[2]; 300 μM, 24 Hours", "result": "84.39 ± 5.01", "unit": "%"}, {"measurement": "Proliferation of SKBr3 Cells Percent Fluorescence Compared to Control", "setting": "[2]; 300 μM, 48 Hours", "result": "83.79 ± 2.71", "unit": "%"}, {"measurement": "Proliferation of SKBr3 Cells Percent Fluorescence Compared to Control", "setting": "[2]; 300 μM, 72 Hours", "result": "88.97 ± 2.04", "unit": "%"}, {"measurement": "Proliferation of SKBr3 Cells Percent Fluorescence Compared to Control", "setting": "[2]; 400 μM, 24 Hours", "result": "75.17 ± 4.67", "unit": "%"}, {"measurement": "Proliferation of SKBr3 Cells Percent Fluorescence Compared to Control", "setting": "[2]; 400 μM, 48 Hours", "result": "70.62 ± 2.34", "unit": "%"}, {"measurement": "Proliferation of SKBr3 Cells Percent Fluorescence Compared to Control", "setting": "[2]; 400 μM, 72 Hours", "result": "77.08 ± 2.78", "unit": "%"}, {"measurement": "Proliferation of SKBr3 Cells Percent Fluorescence Compared to Control", "setting": "[2]; 500 μM, 24 Hours", "result": "65.50 ± 3.74", "unit": "%"}, {"measurement": "Proliferation of SKBr3 Cells Percent Fluorescence Compared to Control", "setting": "[2]; 500 μM, 48 Hours", "result": "59.07 ± 2.49", "unit": "%"}, {"measurement": "Proliferation of SKBr3 Cells Percent Fluorescence Compared to Control", "setting": "[2]; 500 μM, 72 Hours", "result": "67.02 ± 5.13", "unit": "%"}, {"measurement": "Proliferation of SKBr3 Cells Percent Fluorescence Compared to Control", "setting": "[2]; 600 μM, 24 Hours", "result": "58.06 ± 3.00", "unit": "%"}, {"measurement": "Proliferation of SKBr3 Cells Percent Fluorescence Compared to Control", "setting": "[2]; 600 μM, 48 Hours", "result": "50.59 ± 2.34", "unit": "%"}, {"measurement": "Proliferation of SKBr3 Cells Percent Fluorescence Compared to Control", "setting": "[2]; 600 μM, 72 Hours", "result": "52.57 ± 2.28", "unit": "%"}, {"measurement": "Proliferation of SKBr3 Cells Percent Fluorescence Compared to Control", "setting": "[2]; 700 μM, 24 Hours", "result": "51.97 ± 2.77", "unit": "%"}, {"measurement": "Proliferation of SKBr3 Cells Percent Fluorescence Compared to Control", "setting": "[2]; 700 μM, 48 Hours", "result": "43.84 ± 3.41", "unit": "%"}, {"measurement": "Proliferation of SKBr3 Cells Percent Fluorescence Compared to Control", "setting": "[2]; 700 μM, 72 Hours", "result": "44.88 ± 3.40", "unit": "%"}, {"measurement": "Proliferation of SKBr3 Cells Percent Fluorescence Compared to Control", "setting": "[2]; 800 μM, 24 Hours", "result": "43.27 ± 2.50", "unit": "%"}, {"measurement": "Proliferation of SKBr3 Cells Percent Fluorescence Compared to Control", "setting": "[2]; 800 μM, 48 Hours", "result": "33.77 ± 4.19", "unit": "%"}, {"measurement": "Proliferation of SKBr3 Cells Percent Fluorescence Compared to Control", "setting": "[2]; 800 μM, 72 Hours", "result": "33.91 ± 4.35", "unit": "%"}, {"measurement": "Proliferation of SKBr3 Cells Percent Fluorescence Compared to Control", "setting": "[2]; 900 μM, 24 Hours", "result": "35.73 ± 2.66", "unit": "%"}, {"measurement": "Proliferation of SKBr3 Cells Percent Fluorescence Compared to Control", "setting": "[2]; 900 μM, 48 Hours", "result": "25.48 ± 5.92", "unit": "%"}, {"measurement": "Proliferation of SKBr3 Cells Percent Fluorescence Compared to Control", "setting": "[2]; 900 μM, 72 Hours", "result": "25.21 ± 5.96", "unit": "%"}, {"measurement": "reduced proliferation by", "setting": "[2]; SKBr3, 0.9 mM, 72 hours", "result": "about 80%"}, {"measurement": "IC50", "setting": "[3]", "result": 650, "unit": "µM"}, {"measurement": "IC50", "setting": "[4]; NCI-H82, 48 h, read-out: IC50, cell viability", "result": 300, "unit": "µM"}, {"measurement": "IC50", "setting": "[4]; NCI-H82, read-out: IC50, cell viability", "result": "~200", "unit": "µM"}, {"measurement": "Cell viability reduced to", "setting": "[4]; NCI-H82, 24, 48, and 72 hours incubation", "result": "about 10 % of control"}, {"measurement": "growth of breast cancer tumors in vivo (in words)", "setting": "[5]", "result": "completely inhibited growth of these tumors in vivo"}, {"measurement": "IC50", "setting": "[6]", "result": "> 800", "unit": "µM"}, {"measurement": "effect on proliferation (in words)", "setting": "[7]", "result": "decrease proliferation"}, {"measurement": "effect on proliferation (in words)", "setting": "[8]", "result": "decrease proliferation"}, {"measurement": "behavioral effects in the animals", "setting": "[9]; MK-801 at the dose indicated", "result": "no noticeable behavioral effects"}, {"measurement": "well-being as exemplified by body weight", "setting": "[9]; MK-801 at the dose indicated", "result": "no apparent effect on their well-being"}, {"measurement": "Growth of small-cell tumors (in words)", "setting": "[9]; escalating doses from 0.1 mg/kg once daily to 0.3 mg/kg twice daily", "result": "significantly (p<0.0001) reduced"}, {"measurement": "rate of tumor growth reduced to", "setting": "[9]; i.p., escalating 0.1 to 0.3 mg/Kg over 10 days", "result": "~60 % that of controls"}, {"measurement": "effect on cell growth/viability (in words)", "setting": "[10]", "result": "significance in reductions was p<0.001 for 400 to 900 μM"}, {"measurement": "IC50", "setting": "[11]; NCI-H345, 48 h, read-out: IC50, cell viability", "result": 300, "unit": "µM"}, {"measurement": "IC50", "setting": "[11]; NCI-H345, read-out: IC50, cell viability", "result": "~200", "unit": "µM"}, {"measurement": "Cell viability reduced to", "setting": "[11]; NCI-H345, 24, 48, and 72 hours incubation", "result": "about 10 % of control"}]}]}
